{"source": "patent US6608086B2", "about": "“Dihydropyridines and new uses thereof” (Synaptic Pharmaceutical Corporation, priority 1993, dated 2003)", "key": {"[1]": {"target": "T1, α1B Human Adrenergic Receptor (Homo sapiens, UniProt P35368)", "T1 construct": "The entire coding region of α1B (1563 bp); expressed in transfected cells", "T1 sequence (P35368 1-520)": "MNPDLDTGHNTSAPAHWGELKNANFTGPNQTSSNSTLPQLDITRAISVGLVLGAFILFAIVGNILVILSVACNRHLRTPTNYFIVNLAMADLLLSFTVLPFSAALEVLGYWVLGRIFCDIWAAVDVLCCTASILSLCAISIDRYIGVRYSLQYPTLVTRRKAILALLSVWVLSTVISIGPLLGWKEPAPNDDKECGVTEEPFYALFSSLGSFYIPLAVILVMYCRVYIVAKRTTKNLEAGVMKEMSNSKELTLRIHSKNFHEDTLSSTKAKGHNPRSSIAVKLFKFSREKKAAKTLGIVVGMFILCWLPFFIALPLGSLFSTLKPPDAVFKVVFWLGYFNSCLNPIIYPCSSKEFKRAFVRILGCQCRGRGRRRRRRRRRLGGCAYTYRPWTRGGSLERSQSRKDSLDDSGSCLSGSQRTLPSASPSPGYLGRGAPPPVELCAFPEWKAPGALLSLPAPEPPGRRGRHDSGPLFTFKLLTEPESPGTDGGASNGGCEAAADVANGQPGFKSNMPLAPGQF", "experiment": "Radioligand binding, [3H]prazosin, cloned human α1B adrenergic receptor", "conditions": "cloned human α1B receptor, LM(tk-) cell membranes", "summary_of_the_method": "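[3H]prazosin (0.5 nM) binding was run for 20 min at 37° C in pH 7.5 Tris/MgCl2/ascorbate buffer on membranes of LM(tk−) cells stably expressing the cloned receptor. Filtration through GF/B ended the reaction; 10 μM phentolamine gave nonspecific binding.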"}, "[2]": {"target": "T2, α2B receptor (Homo sapiens, UniProt P18089)", "T2 construct": "host or cells: LM(tk-) cells, line L-NGC-α2B", "T2 sequence (P18089 1-450)": "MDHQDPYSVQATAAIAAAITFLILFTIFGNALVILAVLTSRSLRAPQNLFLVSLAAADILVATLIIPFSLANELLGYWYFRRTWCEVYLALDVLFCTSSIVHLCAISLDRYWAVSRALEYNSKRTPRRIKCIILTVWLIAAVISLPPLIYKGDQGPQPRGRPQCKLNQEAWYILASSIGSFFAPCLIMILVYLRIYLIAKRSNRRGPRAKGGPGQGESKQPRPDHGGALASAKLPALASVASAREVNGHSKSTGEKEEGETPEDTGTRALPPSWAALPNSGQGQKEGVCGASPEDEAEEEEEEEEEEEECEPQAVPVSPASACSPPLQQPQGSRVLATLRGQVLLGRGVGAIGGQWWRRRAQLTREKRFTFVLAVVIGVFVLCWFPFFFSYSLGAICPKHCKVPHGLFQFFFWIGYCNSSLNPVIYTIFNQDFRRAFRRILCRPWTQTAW", "experiment": "Competition binding, [3H]rauwolscine, human α2B receptor", "conditions": "for Ki: [3H]rauwolscine, human α2B receptor, LM(tk-) cells", "summary_of_the_method": "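Equilibrium displacement of [3H]rauwolscine (0.5 nM) measured on membranes from stably transfected LM(tk−) lines, one per α2 subtype, in glycylglycine buffer at pH 7.6. Nonspecific binding set by 10 μM phentolamine; separation by filtration.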"}, "[3]": {"target": "T3, α1A Human Adrenergic Receptor (Homo sapiens, UniProt P25100)", "T3 construct": "The entire coding region of α1A (1719 bp); expressed in transfected cells", "T3 sequence (P25100 1-572)": "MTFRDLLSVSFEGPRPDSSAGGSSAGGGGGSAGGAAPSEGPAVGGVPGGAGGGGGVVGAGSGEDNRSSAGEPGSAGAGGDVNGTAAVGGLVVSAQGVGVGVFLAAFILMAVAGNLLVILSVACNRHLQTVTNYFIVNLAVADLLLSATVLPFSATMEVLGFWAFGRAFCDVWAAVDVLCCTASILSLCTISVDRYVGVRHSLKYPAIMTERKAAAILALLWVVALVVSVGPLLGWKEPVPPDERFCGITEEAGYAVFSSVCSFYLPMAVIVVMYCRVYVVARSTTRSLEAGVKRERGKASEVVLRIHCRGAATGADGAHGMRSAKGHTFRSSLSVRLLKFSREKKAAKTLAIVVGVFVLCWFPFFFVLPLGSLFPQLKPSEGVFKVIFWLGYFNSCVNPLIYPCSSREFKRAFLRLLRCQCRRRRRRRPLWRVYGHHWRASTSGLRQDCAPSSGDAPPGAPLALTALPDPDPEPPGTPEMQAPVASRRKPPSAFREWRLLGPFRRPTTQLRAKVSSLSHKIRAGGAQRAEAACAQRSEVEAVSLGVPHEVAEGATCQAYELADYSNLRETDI", "experiment": "Radioligand binding, [3H]prazosin, cloned human α1A adrenergic receptor", "conditions": "for Ki: [3H]prazosin, cloned human α1A receptor, LM(tk-) cell membranes", "summary_of_the_method": "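[3H]prazosin 0.5 nM, transfected LM(tk−) membranes, 37° C, 20 min. Buffer 50 mM Tris-HCl/1 mM MgCl2/0.1% ascorbate, pH 7.5. NSB: 10 μM phentolamine. Filtration harvest.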"}, "[4]": {"conditions": "read-out: PKi alpha-1 1b (converted)"}, "[5]": {"conditions": "read-out: PKi alpha-2 2b (converted)"}, "[6]": {"conditions": "read-out: PKi alpha-1 1a (converted)"}}, "note": "Where two headings read alike, the source gives them in different places.", "data": [{"smiles": "CCOC(=O)C1(c2ccccc2)CCN(CCCNC(=O)C2=C(COCCN)NC(C)=C(C(C)=O)C2c2ccc3c(c2)OCO3)CC1", "note": "(stereo not drawn) [Example 244, 5-Acetyl-2-((2-aminoethyl)oxy)methyl-3-(N-(3-(4-ethoxycarbonyl-4-phenylpiperidin-1-yl)propyl)) carboxamido-1,4-dihydro-6-methyl-4-(3,4-methylenedioxy) phenylpyridine]", "values": [{"measurement": "Ki", "setting": "[1]; [4]", "value": 513, "unit": "nM"}, {"measurement": "Ki", "setting": "[2]; [5]", "value": 2140, "unit": "nM"}, {"measurement": "Ki", "setting": "[3]; [6]", "value": 851, "unit": "nM"}]}, {"smiles": "COC(=O)C1(c2ccccc2)CCN(CCCNC(=O)C2=C(COCCN)NC(C)=C(C(C)=O)C2c2ccc(F)cc2)CC1", "note": "(stereo not drawn) [Example 245, 5-Acetyl-2-((2-aminoethyl)oxy)methyl-4-(4-fluoro)phenyl-1,4-dihydro-3-(N-3-(4-methoxycarbonyl-4-phenylpiperidin-1-yl)propyl)carboxamido-6-methylpyridine]", "values": [{"measurement": "Ki", "setting": "[1]; [4]", "value": 355, "unit": "nM"}, {"measurement": "Ki", "setting": "[2]; [5]", "value": 2750, "unit": "nM"}, {"measurement": "Ki", "setting": "[3]; [6]", "value": 977, "unit": "nM"}]}, {"smiles": "CCC1=C(C(=O)OCCO)C(c2ccc([N+](=O)[O-])cc2)C(C(=O)NCCCN2CCC(c3ccccc3)(c3ccccc3)CC2)=C(COC)N1", "note": "(stereo not drawn) [Example 246]", "values": [{"measurement": "Ki", "setting": "[1]; PKi alpha-1 1b", "value": 174, "unit": "nM"}, {"measurement": "Ki", "setting": "[2]; PKi alpha-2 2b", "value": 309, "unit": "nM"}, {"measurement": "Ki", "setting": "[3]; PKi alpha-1 1a", "value": 316, "unit": "nM"}]}, {"smiles": "CCC1=C(C(=O)NCCOC)C(c2ccc([N+](=O)[O-])cc2)C(C(=O)NCCCN2CCC(c3ccccc3)(c3ccccc3)CC2)=C(COC)N1", "note": "(stereo not drawn) [Example 247, 6-Ethyl-1,4-dihydro-5-N-((2-methoxy)ethyl)carboxamido-2-(methyloxy)methyl-4-(4-nitro)phenyl-3-(N-(3-(4,4-diphenylpiperidin-1-yl)propyl)) carboxamidopyridine]", "values": [{"measurement": "Ki", "setting": "[1]; PKi alpha-1 1b", "value": 912, "unit": "nM"}, {"measurement": "Ki", "setting": "[2]; PKi alpha-2 2b", "value": 479, "unit": "nM"}, {"measurement": "Ki", "setting": "[3]; PKi alpha-1 1a", "value": 977, "unit": "nM"}]}, {"smiles": "CCC1=C(C(=O)NN2CCOCC2)C(c2ccc([N+](=O)[O-])cc2)C(C(=O)NCCCN2CCC(c3ccccc3)(c3ccccc3)CC2)=C(COC)N1", "note": "(stereo not drawn) [Example 248, 6-Ethyl-1,4-dihydro-2-((methyl)oxy)methyl-5-N-(morpholin-4yl)carboxamido-4-(4-nitro)phenyl-3-(N-(3-(4,4-diphenylpiperidin-1-yl)propyl))carboxamidopyridine]", "values": [{"measurement": "Ki", "setting": "[1]; [4]", "value": 1510, "unit": "nM"}, {"measurement": "Ki", "setting": "[2]; [5]", "value": 1150, "unit": "nM"}, {"measurement": "Ki", "setting": "[3]; [6]", "value": 2950, "unit": "nM"}]}, {"smiles": "COC(=O)C1=C(C)NC(C)=C(C(=O)NCCCN2CCC(c3ccccc3)(c3ccccc3)CC2)C1c1cccc([N+](=O)[O-])c1", "note": "(stereo not drawn) [Example 249, 1,4-Dihydro-3-methoxycarbonyl-2,6-dimethyl-4-(3-nitrophenyl)-5-(N-(3-(4,4-diphenylpiperidin-1-yl)propyl)carboxamido)-pyridine]", "values": [{"measurement": "PKi alpha-1 1b", "setting": "[1]", "value": 6.63}, {"measurement": "PKi alpha-2 2b", "setting": "[2]", "value": 5.91}, {"measurement": "PKi alpha-1 1a", "setting": "[3]", "value": 6.37}]}, {"smiles": "COC(=O)C1=C(C)NC(C)=C(C(=O)NCCCN2CCC(c3ccccc3)CC2)C1c1ccc2c(c1)OCO2", "note": "(stereo not drawn) [Example 250]", "values": [{"measurement": "Ki", "setting": "[1]; [4]", "value": 69.2, "unit": "nM"}, {"measurement": "Ki", "setting": "[2]; [5]", "value": 39.8, "unit": "nM"}, {"measurement": "Ki", "setting": "[3]; [6]", "value": 603, "unit": "nM"}]}]}
